Measured values from BindingDB's records for doi:10.1021/jm00381a012 (1985).

molecular target: T1, Angiotensin-converting enzyme (Oryctolagus cuniculus, UniProt P12822); assay: ChEBML_34797
T1 sequence (P12822 whole entry): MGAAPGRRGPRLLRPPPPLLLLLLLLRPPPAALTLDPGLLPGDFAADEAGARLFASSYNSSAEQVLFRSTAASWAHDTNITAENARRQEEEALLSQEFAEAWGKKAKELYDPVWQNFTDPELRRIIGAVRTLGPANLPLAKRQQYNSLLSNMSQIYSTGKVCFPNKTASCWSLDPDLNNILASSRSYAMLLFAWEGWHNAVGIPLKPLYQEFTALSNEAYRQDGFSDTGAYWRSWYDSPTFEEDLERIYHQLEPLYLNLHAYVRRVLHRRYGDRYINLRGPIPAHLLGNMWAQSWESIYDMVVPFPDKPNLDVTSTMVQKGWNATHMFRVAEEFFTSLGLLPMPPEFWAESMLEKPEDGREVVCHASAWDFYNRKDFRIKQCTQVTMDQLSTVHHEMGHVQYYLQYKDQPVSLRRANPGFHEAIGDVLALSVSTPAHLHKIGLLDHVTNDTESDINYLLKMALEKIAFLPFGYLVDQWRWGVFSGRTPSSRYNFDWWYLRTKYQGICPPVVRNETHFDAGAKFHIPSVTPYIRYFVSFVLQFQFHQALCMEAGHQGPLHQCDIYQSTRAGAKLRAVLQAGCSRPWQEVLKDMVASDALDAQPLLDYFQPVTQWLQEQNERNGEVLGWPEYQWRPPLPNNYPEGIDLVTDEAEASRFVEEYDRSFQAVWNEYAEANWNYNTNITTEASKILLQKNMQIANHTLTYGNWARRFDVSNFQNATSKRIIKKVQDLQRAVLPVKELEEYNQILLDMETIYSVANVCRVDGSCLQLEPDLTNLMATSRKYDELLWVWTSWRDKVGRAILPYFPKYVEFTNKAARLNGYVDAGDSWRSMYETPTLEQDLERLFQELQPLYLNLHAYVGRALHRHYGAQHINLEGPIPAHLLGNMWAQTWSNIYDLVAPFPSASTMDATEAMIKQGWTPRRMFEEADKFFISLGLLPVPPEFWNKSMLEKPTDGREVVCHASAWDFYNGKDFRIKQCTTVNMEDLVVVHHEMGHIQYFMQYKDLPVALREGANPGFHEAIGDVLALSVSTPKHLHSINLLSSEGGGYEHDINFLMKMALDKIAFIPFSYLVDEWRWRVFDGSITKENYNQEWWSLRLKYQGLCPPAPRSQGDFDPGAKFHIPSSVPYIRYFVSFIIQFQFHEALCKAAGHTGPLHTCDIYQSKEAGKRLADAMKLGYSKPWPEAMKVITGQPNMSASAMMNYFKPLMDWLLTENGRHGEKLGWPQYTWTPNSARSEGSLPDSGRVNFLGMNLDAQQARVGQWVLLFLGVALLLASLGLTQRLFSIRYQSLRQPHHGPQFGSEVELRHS

IC50, > 100 µM:
O=C(O)CN(C(=O)c1ccc(Cl)cc1S)C1CCCC1
CC(C)(C)C(=O)Sc1ccccc1C(=O)N(CC(=O)O)C1CCCC1
CC(=O)Sc1c(C(=O)N(CC(=O)O)C2CCCC2)cccc1C(C)C
